Assay results reported in patent US20160177395A1, “BIOMARKERS FOR THE PREDICTION OF RENAL INJURY” (priority 2007, published 2016).
Values joined by “and” are separate entries in the source; they are usually repeats but may differ in a detail not shown here. Equal values may be shown once.

System: kidney tissues of treated or untreated rats
Assay: Real-time qRT-PCR of marker transcripts in kidney tissue panel, discovery stage (Table 22)
Assay type: in vivo, rat
Design: AI502869_DB71_seg0 normalized Real Time PCR expression: unit not given beside the values
Conditions: listed as CadCl; for normalized Real Time PCR RATRAB13X_DB81_seg15-17 / normalized Real Time PCR RATRAB13X_DB81_seg22 / normalized Real Time PCR W33294_DB81_seg23 / normalized Real Time PCR W33294_DB81_seg44 / normalized Real Time PCR MMU09507_DB81_seg15 / normalized Real Time PCR MUSCYCG1R_DB81_seg19-20: kidney
Experimental: Before RT preparation the RNA was treated with DNA-free (Ambion, cat. No. AM1906) DNase treatment and removal—according to manufacturer protocol. DNase procedure was repeated until no DNA is detected in a PCR reaction using the RNA samples.
The mixture is then incubated for 5 min at 65° C. and then quickly chilled on ice. Thereafter, 20 μl of 5× SuperscriptII first strand buffer (Invitrogen, Cat. No. Y00146), 9.6 μl 0.1M DTT (Invitrogen, Cat. No. Y00147) and 160 units RNasin (Promega, Cat. No. N251A) are added, and the mixture is incubated for 10 min at 25° C., followed by further incubation at 42° C. for 2 min. […] The resulting cDNA is diluted 1:20 in TE buffer (10 mM Tris pH=8, 1 mM EDTA pH=8).
cDNA (5 μl), prepared as described above, is used as a template in Real-Time PCR reactions using the SYBR Green I assay (PE Applied Biosystem) with specific primers in 100 nM concentration if not indicated otherwise and UNG Enzyme (Eurogentech or equal) Amplification is effected as follows: 50° C. for 2 min, 95° C. for 10 min, and then 40 cycles of 95° C. for 15 sec, followed by 60° C. for 1 min (if not indicated otherwise). Amplification step is followed by dissociation step. Detection is performed by using the PE Applied Biosystem SDS 7000. The cycle in which the reactions achieved a threshold level (Ct) of fluorescence is registered and is used to calculate the relative transcript quantity in the RT reactions. Non-detected samples are assigned Ct value of 41 and are calculated accordingly. The relative quantity is calculated using the equation Q=efficiencŷ-Ct. The efficiency of the PCR reaction is calculated from a standard curve, created by using serial dilutions of several reverse transcription (RT) reactions. To minimize inherent differences in the RT reaction, the resulting relative quantities are normalized to normalization factor calculated as follows: […]
The relative quantity (Q) of each housekeeping gene in each sample is calculated as described above. In order to calculate the “relative Q relative to MED” each Q for each HSKP gene is divided by the median quantity of this gene in all panel samples. To finally achieve the normalization factor of each sample the geometric mean of all four “relative Q relative to MED” was calculated. The normalization factor was then used for further calculations.
The markers of the present invention were tested with regard to their expression in a panel of kidney tissues samples from treated and control rats. Unless otherwise noted, all experimental data relates to the novel polynucleotides and proteins of the present invention, named according to the segment being tested (as expression was tested through RT-PCR as described). Tests were then performed as described in the “Materials and Experimental Procedures” section above.
The qRT-PCR measurements were normalized according to each samples normalization factor as described in “RT Preparation and Real-Time qRT-PCR Analysis” and further multiplied by a constant factor for ease of viewing.

[1] = rat kidney, day1, individual animals (F and M)
[2] = rat kidney, day1, individual animals

SMILES: [Cl][Cd][Cl] [Cadmium chloride]
- normalized Real Time PCR RATRAB13X_DB81_seg15-17 (female rats, day1): 1.63 and 1.8 and 1.55
- normalized Real Time PCR RATRAB13X_DB81_seg22 (female rats, day1): 1.73 and 1.83 and 1.16
- normalized Real Time PCR W33294_DB81_seg23 (female rats, day1): 1.9 and 1.74 and 1.36
- normalized Real Time PCR W33294_DB81_seg44 (female rats, day1): 1.79 and 1.39 and 1.57
- normalized Real Time PCR MMU09507_DB81_seg15 (female rats, day5): 0.87 and 0.56
- normalized Real Time PCR MUSCYCG1R_DB81_seg19-20 (female rats, day5): 1.21 and 1.01
- normalized Real Time PCR RATRAB13X_DB81_seg15-17 (female rats, day5): 1.81 and 0.97
- normalized Real Time PCR RATRAB13X_DB81_seg22 (female rats, day5): 1.56 and 1.1
- normalized Real Time PCR W33294_DB81_seg23 (female rats, day5): 1.76 and 1.7
- normalized Real Time PCR W33294_DB81_seg44 (female rats, day5): 2.05 and 1.37
- normalized Real Time PCR MUSCYCG1R_DB81_seg19-20 (female rats, day28): 0.54 and 0.62 and 0.56
- normalized Real Time PCR RATRAB13X_DB81_seg15-17 (female rats, day28): 0.83 and 0.89 and 0.82
- normalized Real Time PCR RATRAB13X_DB81_seg22 (female rats, day28): 0.7 and 0.9 and 0.46
- normalized Real Time PCR W33294_DB81_seg23 (female rats, day28): 0.94 and 0.97 and 0.85
- normalized Real Time PCR W33294_DB81_seg44 (female rats, day28): 0.88 and 0.69 and 0.7
- normalized Real Time PCR MUSCYCG1R_DB81_seg19-20 (male rats, day1): 0.58 and 1.03 and 0.78
- normalized Real Time PCR RATRAB13X_DB81_seg15-17 (male rats, day1): 0.73 and 0.92 and 1.01
- normalized Real Time PCR RATRAB13X_DB81_seg22 (male rats, day1): 0.92 and 1.29 and 0.67
- normalized Real Time PCR W33294_DB81_seg23 (male rats, day1): 0.62 and 0.31 and 0.37
- normalized Real Time PCR MMU09507_DB81_seg15 (male rats, day5): 0.33 and 0.49 and 0.38
- normalized Real Time PCR MUSCYCG1R_DB81_seg19-20 (male rats, day5): 1.22 and 1.12 and 1.04
- normalized Real Time PCR RATRAB13X_DB81_seg15-17 (male rats, day5): 1.18 and 0.88 and 1.07
- normalized Real Time PCR RATRAB13X_DB81_seg22 (male rats, day5): 1.65 and 1.58 and 1.21
- normalized Real Time PCR W33294_DB81_seg23 (male rats, day5): 1.41 and 1.45 and 1.03
- normalized Real Time PCR W33294_DB81_seg44 (male rats, day5): 1.32 and 1.43 and 1.42
- normalized Real Time PCR MMU09507_DB81_seg15 (male rats, day28): 0.42 and 0.45
- normalized Real Time PCR RATRAB13X_DB81_seg22 (male rats, day28): 0.63 and 0.87 and 0.49
- normalized Real Time PCR W33294_DB81_seg23 (male rats, day28): 0.7 and 0.65
- normalized Real Time PCR W33294_DB81_seg44 (male rats, day28): 0.73 and 0.53
- H33998_DB71_seg19 normalized Real Time PCR [1]: 2.29 and 2.51 and 0.01 and 0.76 and 0.66 and 0.69
- MUSCYCG1R_DB81_seg15-17 normalized Real Time PCR [1]: 1.91 and 1.36 and 1.68 and 0.61 and 0.73 and 0.36
- RATLRFI_DB71_seg9 normalized Real Time PCR [1]: 0.27 (2×) and 0.33 and 0.32 and 0.36 and 0.23
- RATRAB13X_DB71_seg11-13 normalized Real Time PCR [1]: 0.95 (2×) and 1.2 and 1.05 and 1.22 and 1.14
- RNU24174_DB71_seg8 normalized Real Time PCR [1]: 0.3 and 0.29 and 0.49 and 0.2 and 0.4 and 0.22
- W41270_DB81_seg11 normalized Real Time PCR [1]: 1.44 and 1.78 and 1.48 and 0.5 and 0.62 and 0.43
- W64472_DB81_seg2 normalized Real Time PCR [1]: 1.07 (2×) and 1.1 and 0.55 and 1.45 and 0.41
- W83813_DB81_seg27 normalized Real Time PCR [1]: 2.07 and 2.19 and 1.66 and 0.47 and 0.51 and 0.65
- AA686189_DB71_seg6 normalized Real Time PCR expression [2]: 0.38 (2×) and 0.52 and 0.36 and 0.59 and 0.64
- AA799594_DB71_seg0 normalized Real Time PCR expression [2]: 1.25 and 1.43 and 1.27 and 1.09 and 1.15 and 1.05
- AA964541_DB71_seg0 normalized Real Time PCR expression [2]: 0.41 and 0.55 and 0.3 and 0.28 and 0.6 and 0.56
- AI045075_DB71_seg6 normalized Real Time PCR expression [2]: 0.6 and 0.54 and 0.5 and 0.66 and 0.87 and 0.84
- AI454051_DB71_seg0 normalized Real Time PCR expression [2]: 1.47 and 1.46 and 1.08 and 1.48 and 2.13 and 0.77
- AI502869_DB71_seg0 normalized Real Time PCR expression [2]: 0.54 and 1.37 and 0.56 and 1.14 and 2.59 and 0.86
